Reference: patent publication US8703811B2, “Small molecule inhibitors of Plasmodium falciparum dihydroorotate dehydrogenase” (Genzyme Corporation, priority 2008, dated 2014)
Where two headings read alike, the source gives them in different places.

Experiments:
P. falciparum Dd2 = assay: Inhibition of in vitro P. falciparum culture, [3H]-hypoxanthine uptake, Dd2; type: cell-based; conditions: for EC50: read-out: Dd2 EC50; for IC50: read-out: Dd2 IC50
Procedure, shortened: (§1)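 Parasite growth inhibition measured as relative reduction of [3H]-hypoxanthine uptake in in vitro cultures. Values from non-linear regression fit, using relative growth velocity in place of product-formation rate.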

pfDHODH = pfDHODH (Plasmodium falciparum (isolate 3D7), UniProt Q08210); assay: DHODH chromogen reduction (DCIP) assay, pfDHODH; type: biochemical, P. falciparum; conditions: for IC50: read-out: pfDHODH IC50
Permeability = type: in vitro ADME; conditions: for Papp: Caco-2
Experimental: Permeability assays using the Caco-2 colon carcinoma cell line are being used throughout the pharmaceutical industry to estimate the ability of potential drug compounds to cross the intestinal epithelium. Caco-2 cell permeability studies are performed using Caco-2 cell monolayers grown on microporous membranes in multiwell insert systems. With the inserts suspended in the wells of multiwell plates, test compounds can be added to either the upper (apical) or lower (basolateral) chamber to measure permeability in the absorptive (apical to basolateral) or secretive (basolateral to apical) directions. Samples are then taken from the opposite chamber at various time intervals to measure the amount of test compound that has crossed the cell monolayer. A representative method to generate permeability data similar to that in Table 3 can be found in Alsenz, J; Haenel, E. “Development of a 7-Day, 96-Well Caco-2 Permeability Assay with High-Throughput Direct UV Compound Analysis.” Pharmaceutical Research 2003 20(12): p 1961-1969.
Parallel artificial membrane permeability assay (PAMPA) utilizes a simple phospholipid-coated filter disc to measure membrane permeability. It was developed as an alternative to the low throughput. Caco-2 cell permeability assay used to correlate passive permeability with in vivo oral absorption. A representative publication disclosing this method is Kerns, E H; Di, L; Petusky, S; Farris, M; Ley, R; Jupp, P. “Combined application of parallel artificial membrane permeability assay and Caco-2 permeability assays in drug discovery.” J. Pharma Sci. 2004, 93 (6), pages 1440-53.
Cell culture methods (e.g. Caco-2, HT-29 and MDC) and physicochemical methods such as PAMPA and immobilized artificial membrane (IAM) columns are known in the art and can be used to obtain data such as that in Table 3. Hidalgo, I J; “Assessing the absorption of new pharmaceuticals.” Curr Top Med. Chem. 2001 November; 1(5): p 385-401.

P. falciparum 3D7 = assay: Inhibition of in vitro P. falciparum culture, [3H]-hypoxanthine uptake, 3D7; type: cell-based; conditions: for EC50: read-out: 3D7 EC50; for IC50: read-out: 3D7 IC50
Procedure, shortened: as §1

Log D measurement = type: physicochemical
Source text: Many standard techniques are known in the art to establish the distribution coefficient of a compound between two particular solvents. The following description is one such technique that could be used to determine the distribution coefficient: The shake-flask method, which consists of dissolving some of the compound in a volume of octanol and water, then physically shaking the mixture and allowing the two solvents to fully separate. The concentration of the compound in each solvent is then measured. The most common method of measuring the distribution of the solute is by HPLC or UV/Vis spectroscopic techniques.

[1] = Renal Proximal Tubule Epithelial Cell Toxicity Screen; type: cell-based
Experimental: The Renal Proximal Tubule Epithelial Cell Toxicity Screen is designed to determine whether compound mixtures, breakouts or single compounds are toxic to normal renal epithelial cells. […] Basically, the screen consists of plating renal epithelial cells, exposing them to the desired compound(s) for 4 days and measuring cell viability using the Alamar Blue reagent.
Harvested Kidney Epithelial cells were diluted in REGM to 1.5×10^4 cells/mL. […] NOTE: One plate, the T=0 plate required that 20-30 wells be seeded, and all the other plates had 96 wells seeded. Plates were incubated in 37° C./5% CO2 incubator for 24 hours.
Alamar Blue solution (25 μL/well) was added to the T=0 plate and mixed. The plate was incubated in 37° C./5% CO2 incubator for 4 hours, mixed and then the fluorescence was measured. 10% Tween 20 stock (10 μL) was added into rows A-D in column 1 (positive control). DMSO (0.5 μL) was added into column 2 (negative control). Compounds were placed into designated wells for desired testing as follows:
Plates were mixed on the shaker, and then incubated in 37° C./5% CO2 incubator for 96 hours. Day 6:
Alamar Blue solution (25 μL/well) was added to the plates containing the compounds and mixed. Plates were incubated in 37° C./5% CO2 incubator for 4 hours, mixed and the fluorescence was measured.

[2] = Table 3, [3H]-hypoxanthine uptake
[3] = Table 3, DCIP assay, 20 nM pfDHODH
[4] = Plasmodium falciparum, DD2, Table 2b
[5] = Plasmodium falciparum, DD2, Table 3, [3H]-hypoxanthine uptake
[6] = Plasmodium falciparum, 3D7, Table 2b
[7] = Plasmodium falciparum, 3D7, Table 3, [3H]-hypoxanthine uptake

Chain of pfDHODH (Q08210 159-565 limits assumed): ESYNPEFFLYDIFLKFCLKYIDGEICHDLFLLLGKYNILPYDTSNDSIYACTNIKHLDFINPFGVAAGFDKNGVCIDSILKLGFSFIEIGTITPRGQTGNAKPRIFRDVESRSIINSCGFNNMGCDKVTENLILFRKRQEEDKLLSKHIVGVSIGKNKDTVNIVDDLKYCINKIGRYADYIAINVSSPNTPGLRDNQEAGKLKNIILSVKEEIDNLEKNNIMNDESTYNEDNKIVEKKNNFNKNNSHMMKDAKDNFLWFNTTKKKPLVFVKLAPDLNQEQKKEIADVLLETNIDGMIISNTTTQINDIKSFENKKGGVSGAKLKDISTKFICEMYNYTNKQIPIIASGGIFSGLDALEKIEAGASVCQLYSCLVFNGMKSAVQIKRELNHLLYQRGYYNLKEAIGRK

Row | Compound | EC50 (P. falciparum Dd2; Table 2b) | IC50 (P. falciparum Dd2; [2]) | IC50 (pfDHODH; Table 2b) | IC50 (pfDHODH; [3]) | Permeability (Permeability) | EC50 (P. falciparum 3D7; Table 2b) | IC50 (P. falciparum 3D7; [2]) | logD (Log D measurement) | IC50 (P. falciparum Dd2; Plasmodium falciparum, DD2, Erythrocyte, [3H]-hypoxanthine uptake by parasite infected erythrocytes) | EC50 (P. falciparum Dd2; [4]) | IC50 (P. falciparum Dd2; [5]) | inhibition at 50 µM (pfDHODH; 50 μM inhibitor, 200 μM L-DHO, 100 μM CoQD, 60 μM DCIP, read-out: % Inhibition of Product Formation Rate with 50 μM Inhibitor, CoQD) | IC50 (pfDHODH; DCIP assay, 200 μM L-DHO, 18 μM CoQD, 100 μM DCIP, 20 nM enzyme) | IC50 (P. falciparum 3D7; Plasmodium falciparum, 3D7, Erythrocyte, [3H]-hypoxanthine uptake by parasite infected erythrocytes) | EC50 (P. falciparum 3D7; [6]) | IC50 (P. falciparum 3D7; [7]) | CC50 at 96 h [1] | logD (Log D measurement; octanol/water, read-out: LogD) | Papp (Permeability)
1 | 5-(1H-indol-1-yl)-N-propylthiophene-2-carboxamide [Compound 7] | 1030 nM | 230 nM | 459 nM | 460 nM | 52 cm/sec × 10^−6 | 708 nM | 710 nM | >3.5 | – | – | – | – | – | – | – | – | – | – | –
2 | CCCNC(=O)c1ccc(-n2c(C)cc3ccccc32)s1 [Compound 1, 5-(2-methyl-1H-indol-1-yl)-N-propylthiophene-2-carboxamide] | – | – | 64 nM | 70 nM | – | – | – | – | 290 nM | 493 nM | 250 nM | 104% | 42 ± 7 nM | 470 nM | 386 nM | 390 nM | > 62 µM | > 3.5 | –
3 | CCCNC(=O)c1ccc(-n2cnc3ccccc32)s1 [Compound 11, 5-(1H-benzo[d]imidazol-1-yl)-N-propylthiophene-2-carboxamide] | – | 1250 nM | 703 nM | 700 nM | – | – | – | – | – | 1100 nM | 955 nM | – | – | – | 472 nM | 470 nM | > 62 µM | 3.3 | 32 ×10⁻⁶ cm/s
4 | CCCNC(=O)c1ccc(-n2c(C)nc3ccccc32)s1 [Compound 12, 5-(2-methyl-1H-benzo[d]imidazol-1-yl)-N-propylthiophene-2-carboxamide] | – | – | 172 nM | 170 nM | – | – | – | – | – | – | – | – | – | – | 628 nM | 630 nM | > 62 µM | 3.4 | 65 ×10⁻⁶ cm/s
